Experimental findings from the supplement of paper PMC11208160 are described below.
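Further: IS621 recombinase and bridge RNA in Escherichia coli cells.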

A short description of the series: recombinant barcode read abundance after kanamycin selection (control-corrected) (log10(CPM+1)); higher = more efficient recombination; sequences stand for … in AGTGCAGAGAAAATCGGCCAGTTTTCTCTGCCTGCAGTCCGCATGCCGT…AGATTTATGCAGCGGACTGCCTTTCTCCCAAAGTGATAAACCGGACAGTATCATGGACCGGTTTTCCCGGTAATCCGTATTTGCAAGGTTGGTTTCACT; site = the 11-nt target. The gist of the method: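 Recombination efficiency comes from barcode counts at recombinant junctions, converted to counts per million, averaged and corrected against the control. Values appear as log10(CPM+1). They were obtained from a pooled E. coli screen in which each oligo paired a target with an IS621 bridge RNA target-binding loop, and cells were plated in duplicate on chloramphenicol/ampicillin LB agar or on chloramphenicol/ampicillin/kanamycin with 0.1 mM IPTG.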
In the case of “CTTCAACCTTGGGTTCTAACCTGTTGCCT (site CTTCAACCTAG)”, the “recombinant barcode read abundance (log10)” value turned out to be 1.75.
Regarding “CTTCAACCTTGGGTTCTAACCTGTTGCCT (site CTTCACCCTAG)”, the “recombinant barcode read abundance (log10)” value came to 0.215.
“CTTCAACCTTGGGTTCTAACCTGTTGCCT (site CTTCAGCCTAG)”: the “recombinant barcode read abundance (log10)” value is 0.0746.
To “CTTCAACCTTGGGTTCTAACCTGTTGCCT (site CTTCATCCTAG)” belongs 0.139.
To “CTTCACACTTGGGTTCTAACCTGTTGCAT (site CTTCACACTAT)” belongs 1.7.
In the case of “CTTCACACTTGGGTTCTAACCTGTTGCAT (site CTTCACGCTAG)” it was 0.316; in that of “CTTCAGACTTGGGTTCTAACCTGTTGCTA (site CCTCAGACTTC)”, 0.0983.
Take “CTTCAGACTTGGGTTCTAACCTGTTGCTA (site CTTCAGACTTA)”: the “recombinant barcode read abundance (log10)” value came to 1.43.
With “CTTCATTCTTGGGTTCTAACCTGTTGCCT (site CTTCATTCTAG)”, the “recombinant barcode read abundance (log10)” value turned out to be 0.102.
For “CTTCATTCTTGGGTTCTAACCTGTTGCCT (site TGCTGGGCTCA)”, the “recombinant barcode read abundance (log10)” value was 0.0303.
In the case of “CTTCGAGCTTGGGTTCTAACCTGTTGCGG (site CTTCGAGCTCA)”, the “recombinant barcode read abundance (log10)” value stood at 0.0538.
With “CTTCGAGCTTGGGTTCTAACCTGTTGCGG (site CTTCGAGCTCC)”, the “recombinant barcode read abundance (log10)” value turned out to be 0.98.
For “CTTCGAGCTTGGGTTCTAACCTGTTGCGG (site CTTCGAGCTCG)”, the “recombinant barcode read abundance (log10)” value came out at 0.027.
Regarding “CTTCGAGCTTGGGTTCTAACCTGTTGCGG (site CTTCGAGCTCT)”, the “recombinant barcode read abundance (log10)” value turned out to be 0.658.
Take “CTTCGTACTTGGGTTCTAACCTGTTGCCA (site CTCCGTACTCG)”: the “recombinant barcode read abundance (log10)” value was 0.126.
Take “CTTCGTACTTGGGTTCTAACCTGTTGCCA (site CTTCGTACTTG)”: the “recombinant barcode read abundance (log10)” value worked out at 0.213.
Turning to “CTTCGTCCTTGGGTTCTAACCTGTTGCCT (site CTTCGTCCTAA)”, the “recombinant barcode read abundance (log10)” value came to 0.132.
With “CTTCGTCCTTGGGTTCTAACCTGTTGCCT (site CTTCGTCCTAC)”, the “recombinant barcode read abundance (log10)” value came out at 0.0309.
To “CTTCGTCCTTGGGTTCTAACCTGTTGCCT (site CTTCGTCCTAG)” belongs 0.804; to “CTTCGTCCTTGGGTTCTAACCTGTTGCCT (site CTTCGTCCTAT)”, 0.0799; to “CTTCGTCCTTGGGTTCTAACCTGTTGCTT (site CTTCGTCCTAA)”, 0.206.
For “CTTCGTCCTTGGGTTCTAACCTGTTGCTT (site CTTCGTCCTAC)”, the “recombinant barcode read abundance (log10)” value came to 0.68.
With “CTTCGTCCTTGGGTTCTAACCTGTTGCTT (site CTTCGTCCTAG)”, the “recombinant barcode read abundance (log10)” value stood at 0.0453.
“CTTCGTCCTTGGGTTCTAACCTGTTGCTT (site CTTCGTCCTAT)”: the “recombinant barcode read abundance (log10)” value is 0.541.
Turning to “CTTGACACTTGGGTTCTAACCTGTTGCCT (site CTAGACACTAG)”, the “recombinant barcode read abundance (log10)” value amounted to 1.2.
With “CTTGACACTTGGGTTCTAACCTGTTGCCT (site CTCGACACTAG)”, the “recombinant barcode read abundance (log10)” value worked out at 0.401.
Regarding “CTTGACACTTGGGTTCTAACCTGTTGCCT (site CTGGACACTAG)”, the “recombinant barcode read abundance (log10)” value was found to be 0.236.
In the case of “CTTGACACTTGGGTTCTAACCTGTTGCCT (site CTTGACACTAG)” it was 2.07; in that of “CTTGGAGCTTGGGTTCTAACCTGTTGCCT (site CTTGGAACTAG)”, 0.365; in that of “CTTGGAGCTTGGGTTCTAACCTGTTGCCT (site CTTGGACCTAG)”, 0.247.
For the sequence “CTTGGAGCTTGGGTTCTAACCTGTTGCCT (site CTTGGAGCTAG)”, the “recombinant barcode read abundance (log10)” value is 1.61.
For the sequence “CTTGGAGCTTGGGTTCTAACCTGTTGCCT (site CTTGGATCTAG)”, the “recombinant barcode read abundance (log10)” value was determined as 0.145.
With “CTTGGGTCTTGGGTTCTAACCTGTTGCAT (site CTTGGGTCTAT)”, the “recombinant barcode read abundance (log10)” value was 2.72.
For “CTTGGGTCTTGGGTTCTAACCTGTTGCAT (site TCCCATACTTC)”, the “recombinant barcode read abundance (log10)” value is 0.0573.
In the case of “CTTGGTTCTTGGGTTCTAACCTGTTGCTT (site CTGGGTCCTAA)”, the “recombinant barcode read abundance (log10)” value was 0.0304.
“CTTGGTTCTTGGGTTCTAACCTGTTGCTT (site CTTGGTTCTAA)”: the “recombinant barcode read abundance (log10)” value is 0.809.
To “GAAAACACTTGGGTTCTAACCTGTTGCCT (site GAAAACACTAG)” belongs 1.18.
“GAAAACACTTGGGTTCTAACCTGTTGCCT (site GAAGAGACTAG)”: the “recombinant barcode read abundance (log10)” value is 0.0433.
Turning to “GAAAAGGCTTGGGTTCTAACCTGTTGCCT (site GAAAAGGCTAG)”, the “recombinant barcode read abundance (log10)” value was 0.804.
Take “GAAAAGGCTTGGGTTCTAACCTGTTGCCT (site GAAACGGCTAG)”: the “recombinant barcode read abundance (log10)” value stood at 0.105.
For the sequence “GAAAAGGCTTGGGTTCTAACCTGTTGCCT (site GAAAGGGCTAG)”, the “recombinant barcode read abundance (log10)” value turned out to be 0.0324.
For the sequence “GAAAAGGCTTGGGTTCTAACCTGTTGCCT (site GAAATGGCTAG)”, the “recombinant barcode read abundance (log10)” value was 0.206.
Turning to “GAAACGTCTTGGGTTCTAACCTGTTGCCT (site GAAACGTCTAG)”, the “recombinant barcode read abundance (log10)” value is 1.65.
In the case of “GAAACGTCTTGGGTTCTAACCTGTTGCCT (site GACAAGTCTAG)”, the “recombinant barcode read abundance (log10)” value stood at 0.0765.
As to “GAAACTCCTTGGGTTCTAACCTGTTGCCT (site GAAAATCCTAG)”, the “recombinant barcode read abundance (log10)” value turned out to be 0.13.
In the case of “GAAACTCCTTGGGTTCTAACCTGTTGCCT (site GAAACTCCTAG)” it was 0.352.
In the case of “GAAACTCCTTGGGTTCTAACCTGTTGCCT (site GAAAGTCCTAG)” it was 0.235; in that of “GAAACTCCTTGGGTTCTAACCTGTTGCCT (site GAAATTCCTAG)”, 0.0462.
As to “GAAATGACTTGGGTTCTAACCTGTTGCCT (site GAAATGACTAG)”, the “recombinant barcode read abundance (log10)” value came to 0.908.
With “GAAATGACTTGGGTTCTAACCTGTTGCCT (site GCAATGACTAG)”, the “recombinant barcode read abundance (log10)” value turned out to be 0.152.
For the sequence “GAAATGACTTGGGTTCTAACCTGTTGCCT (site GGAATGACTAG)”, the “recombinant barcode read abundance (log10)” value stood at 0.066.
Consider “GAAATGACTTGGGTTCTAACCTGTTGCCT (site GTAATGACTAG)”, for which the “recombinant barcode read abundance (log10)” value was found to be 0.202.
As to “GAACCTTCTTGGGTTCTAACCTGTTGCGG (site GAACCTTCTCC)”, the “recombinant barcode read abundance (log10)” value was found to be 0.93.
To “GAACCTTCTTGGGTTCTAACCTGTTGCGG (site TTCTACACTAT)” belongs 0.0281; to “GAACGACCTTGGGTTCTAACCTGTTGCCT (site AAACGACCTAG)”, 0.331.
“GAACGACCTTGGGTTCTAACCTGTTGCCT (site CAACGACCTAG)”: the “recombinant barcode read abundance (log10)” value was 0.0122.
In the case of “GAACGACCTTGGGTTCTAACCTGTTGCCT (site GAACGACCTAG)” it was 0.721.
“GAACGACCTTGGGTTCTAACCTGTTGCCT (site TAACGACCTAG)”: the “recombinant barcode read abundance (log10)” value worked out at 0.144.
Take “GAACTCCCTTGGGTTCTAACCTGTTGCGG (site GAACTCCCTCC)”: the “recombinant barcode read abundance (log10)” value was 0.758.
“GAACTCCCTTGGGTTCTAACCTGTTGCGG (site TGTTGGTCTAA)”: the “recombinant barcode read abundance (log10)” value was 0.0984.
For “GAACTCTCTTGGGTTCTAACCTGTTGCTA (site CCTAAAACTAG)”, the “recombinant barcode read abundance (log10)” value is 0.0469.
In the case of “GAACTCTCTTGGGTTCTAACCTGTTGCTA (site GAACTCTCTTA)” it was 1.66; in that of “GAACTGTCTTGGGTTCTAACCTGTTGCCA (site GAACTGTCTTG)”, 0.995.
Consider “GAACTGTCTTGGGTTCTAACCTGTTGCCA (site GTACTCTCTTG)”, for which the “recombinant barcode read abundance (log10)” value amounted to 0.0913.
On to “GAAGAGCCTTGGGTTCTAACCTGTTGCCT (site GAAGAGCCTAG)”, for which the “recombinant barcode read abundance (log10)” value was found to be 2.62.
Turning to “GAAGAGCCTTGGGTTCTAACCTGTTGCCT (site GAAGCGCCTAG)”, the “recombinant barcode read abundance (log10)” value turned out to be 0.189.
Regarding “GAAGAGCCTTGGGTTCTAACCTGTTGCCT (site GAAGGGCCTAG)”, the “recombinant barcode read abundance (log10)” value is 0.0404.
With “GAAGAGCCTTGGGTTCTAACCTGTTGCCT (site GAAGTGCCTAG)”, the “recombinant barcode read abundance (log10)” value worked out at 0.0759.
For the sequence “GAAGAGGCTTGGGTTCTAACCTGTTGCCA (site GAAGAGGCTTG)”, the “recombinant barcode read abundance (log10)” value is 0.536.
Consider “GAAGAGGCTTGGGTTCTAACCTGTTGCCA (site TGTCTCCCTAC)”, for which the “recombinant barcode read abundance (log10)” value came out at 0.115.
In the case of “GAAGCCGCTTGGGTTCTAACCTGTTGCCT (site GAAGACGCTAG)” it was 0.0292.
In the case of “GAAGCCGCTTGGGTTCTAACCTGTTGCCT (site GAAGCCGCTAG)” it was 2.26.
As for “GAAGCCGCTTGGGTTCTAACCTGTTGCCT (site GAAGGCGCTAG)”, the “recombinant barcode read abundance (log10)” value was determined as 0.16.
In the case of “GAAGCCGCTTGGGTTCTAACCTGTTGCCT (site GAAGTCGCTAG)”, the “recombinant barcode read abundance (log10)” value was determined as 0.302.
With “GAAGGAGCTTGGGTTCTAACCTGTTGCAG (site ATGCCTCCTAA)”, the “recombinant barcode read abundance (log10)” value is 0.0306.
As for “GAAGGAGCTTGGGTTCTAACCTGTTGCAG (site GAAGGAGCTCT)”, the “recombinant barcode read abundance (log10)” value worked out at 1.51.
Turning to “GAAGGGACTTGGGTTCTAACCTGTTGCCT (site GAAGGGACTAG)”, the “recombinant barcode read abundance (log10)” value turned out to be 2.11.
